Target: Acetyl-CoA carboxylase 2 (Homo sapiens, UniProt O00763)
Test: Spectrophotometric 384 Well Assay: Assay reactions are then carried out in 384-well plates, with hACC2 in an appropriate dilution and at final assay concentrations (f.c.) of 100 mM Tris (pH 7.5), 10 mM trisodium citrate, 25 mM KHCO3, 10 mM MgCl2, 0.5 mg/ml BSA, 3.75 mM reduced L-glutathione, 15 U/ml lactate dehydrogenase, 0.5 mM phosphoenolpyruvate, 15 U/ml pyruvate kinase, compounds at different concentrations at final DMSO concentrations of 1%.The enzymatic reaction is then started by addition of a mixture of NADH, acetyl Coenzyme A (both 200 μM f.c.) and ATP (500 uM f.c.). The decrease of the optical density (slope S) is then determined at 25° C. at a wavelength of 340 nm over 15 minutes in a spectrophotometric reader.

Chain of Acetyl-CoA carboxylase 2 (O00763 whole entry): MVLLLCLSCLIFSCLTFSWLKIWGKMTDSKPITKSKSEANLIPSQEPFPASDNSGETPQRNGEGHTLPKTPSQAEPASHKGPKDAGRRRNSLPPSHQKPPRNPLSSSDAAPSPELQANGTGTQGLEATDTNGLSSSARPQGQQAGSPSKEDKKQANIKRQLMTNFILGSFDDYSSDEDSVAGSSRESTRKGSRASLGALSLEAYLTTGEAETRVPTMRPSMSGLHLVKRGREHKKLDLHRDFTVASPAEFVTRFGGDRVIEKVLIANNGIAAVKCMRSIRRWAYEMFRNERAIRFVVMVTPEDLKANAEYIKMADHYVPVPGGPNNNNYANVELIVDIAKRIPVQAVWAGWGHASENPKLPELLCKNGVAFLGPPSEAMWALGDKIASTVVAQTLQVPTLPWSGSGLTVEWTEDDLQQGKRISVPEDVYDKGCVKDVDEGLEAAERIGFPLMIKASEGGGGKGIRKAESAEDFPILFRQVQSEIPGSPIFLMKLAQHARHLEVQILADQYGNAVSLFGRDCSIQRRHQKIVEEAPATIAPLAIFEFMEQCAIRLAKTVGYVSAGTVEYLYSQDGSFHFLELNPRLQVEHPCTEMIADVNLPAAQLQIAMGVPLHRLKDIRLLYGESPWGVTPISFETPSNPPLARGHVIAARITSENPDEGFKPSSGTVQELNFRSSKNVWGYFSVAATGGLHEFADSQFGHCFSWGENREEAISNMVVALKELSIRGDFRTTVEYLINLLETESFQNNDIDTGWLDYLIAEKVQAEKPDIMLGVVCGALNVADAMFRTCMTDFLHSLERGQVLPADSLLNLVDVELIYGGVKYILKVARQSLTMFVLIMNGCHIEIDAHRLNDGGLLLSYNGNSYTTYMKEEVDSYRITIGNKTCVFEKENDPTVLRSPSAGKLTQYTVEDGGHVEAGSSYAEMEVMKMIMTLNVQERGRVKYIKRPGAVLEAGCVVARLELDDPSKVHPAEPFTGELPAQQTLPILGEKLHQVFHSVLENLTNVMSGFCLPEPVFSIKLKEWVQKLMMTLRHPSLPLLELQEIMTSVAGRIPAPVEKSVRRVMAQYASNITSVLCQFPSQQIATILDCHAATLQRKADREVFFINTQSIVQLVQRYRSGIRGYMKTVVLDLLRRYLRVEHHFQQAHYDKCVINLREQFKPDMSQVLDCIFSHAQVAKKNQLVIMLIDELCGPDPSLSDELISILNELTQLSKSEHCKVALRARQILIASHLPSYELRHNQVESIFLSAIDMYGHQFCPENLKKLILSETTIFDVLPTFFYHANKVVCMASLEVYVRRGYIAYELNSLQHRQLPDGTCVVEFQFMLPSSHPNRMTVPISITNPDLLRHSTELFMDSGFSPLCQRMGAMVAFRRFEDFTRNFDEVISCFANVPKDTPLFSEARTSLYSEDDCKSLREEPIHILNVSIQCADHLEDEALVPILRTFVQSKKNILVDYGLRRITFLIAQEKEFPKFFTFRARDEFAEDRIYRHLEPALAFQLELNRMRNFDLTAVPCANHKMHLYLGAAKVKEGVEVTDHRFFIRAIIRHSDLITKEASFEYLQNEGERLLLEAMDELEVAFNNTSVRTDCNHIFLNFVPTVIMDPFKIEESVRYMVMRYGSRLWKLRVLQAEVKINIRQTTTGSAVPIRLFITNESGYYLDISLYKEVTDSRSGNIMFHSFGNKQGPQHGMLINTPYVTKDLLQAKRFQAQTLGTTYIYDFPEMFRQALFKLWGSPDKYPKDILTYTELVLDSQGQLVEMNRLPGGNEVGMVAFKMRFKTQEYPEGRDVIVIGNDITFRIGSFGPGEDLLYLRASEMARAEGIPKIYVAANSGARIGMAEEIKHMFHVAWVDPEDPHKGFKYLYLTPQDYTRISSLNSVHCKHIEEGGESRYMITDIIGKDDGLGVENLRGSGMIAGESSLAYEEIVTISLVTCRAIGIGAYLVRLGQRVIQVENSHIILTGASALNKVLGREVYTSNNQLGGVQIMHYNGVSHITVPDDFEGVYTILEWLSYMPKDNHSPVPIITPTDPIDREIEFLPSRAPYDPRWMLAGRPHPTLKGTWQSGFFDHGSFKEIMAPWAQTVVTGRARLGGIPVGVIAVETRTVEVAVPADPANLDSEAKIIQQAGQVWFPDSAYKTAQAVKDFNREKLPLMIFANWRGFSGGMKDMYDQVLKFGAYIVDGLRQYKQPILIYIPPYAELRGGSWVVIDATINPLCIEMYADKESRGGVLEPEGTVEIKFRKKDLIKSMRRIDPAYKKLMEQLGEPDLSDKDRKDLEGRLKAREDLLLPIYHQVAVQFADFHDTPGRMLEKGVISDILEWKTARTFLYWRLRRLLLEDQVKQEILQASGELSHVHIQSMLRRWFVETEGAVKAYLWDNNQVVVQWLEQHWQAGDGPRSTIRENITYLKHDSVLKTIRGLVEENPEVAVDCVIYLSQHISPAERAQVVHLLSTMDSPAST

IC50	Structure (SMILES)
1360 nM	COC(=O)N[C@@H](C)c1ccc(OC2CCN(c3ccc(OC(C)C)cc3)C2)cc1 (some centres not stated)
16 nM	C[C@H](NC(=O)c1cn[nH]c1)c1ccc(O[C@@H]2CCN(c3ccc(OCC4CC4)cc3)C2)cc1
